Measured values reported in a compilation of properties of binary mixtures (doi:10.1007/s10953-014-0273-1).

Assay: xn = mol fraction of the nth substance listed
Conditions: 101 kPa

CCCC[n+]1ccn(C)c1.F[B-](F)(F)F + CC#N
viscosity [mPa·s]
Conditions	x2 = 0	x2 = 0.1001	x2 = 0.2034	x2 = 0.3011	x2 = 0.4013	x2 = 0.5	x2 = 0.6018	x2 = 0.7	x2 = 0.7997	x2 = 0.9001
303.15 K	–	55.2	–	23.74	14.97	9.25	5.34	3	1.611	0.792
313.15 K	53	36.5	24.4	16.9	–	7.14	–	2.522	1.389	0.707
323.15 K	–	25.36	17.76	–	8.57	–	3.58	2.155	–	0.636
333.15 K	25.01	18.43	13.23	9.83	6.83	4.69	3.03	1.877	1.103	0.579

CCCC[n+]1ccn(C)c1.F[B-](F)(F)F + CC(=O)N(C)C
viscosity [mPa·s]
Conditions	x2 = 0	x2 = 0.1006	x2 = 0.2004	x2 = 0.3005	x2 = 0.4011	x2 = 0.5002	x2 = 0.5998	x2 = 0.6996	x2 = 0.8002	x2 = 0.8999
303.15 K	84.2	59	41.6	29	19.38	12.88	8.32	4.99	2.95	1.679
313.15 K	53	38.5	28	20.16	14	–	6.32	4	2.44	–
323.15 K	35.5	26.6	19.88	14.62	10.55	7.37	–	–	2.069	–
333.15 K	25.01	19.27	14.76	11.08	8.15	5.87	4.09	2.77	–	1.1

CC#N + CCCC[n+]1ccn(C)c1.F[B-](F)(F)F
x1 = 1
Conditions	viscosity [mPa·s]
303.15 K	0.329
313.15 K	0.3
323.15 K	0.276

CC(=O)N(C)C + CCCC[n+]1ccn(C)c1.F[B-](F)(F)F
x1 = 1
Conditions	viscosity [mPa·s]
303.15 K	0.882
323.15 K	0.69
333.15 K	0.618

CN1CCCC1=O + CCCC[n+]1ccn(C)c1.F[B-](F)(F)F
Conditions	viscosity [mPa·s]
303.15 K, x1 = 1	1.551

CO + CCCC[n+]1ccn(C)c1.F[B-](F)(F)F
x1 = 1
Conditions	viscosity [mPa·s]
313.15 K	0.455
323.15 K	0.401

CCCC[n+]1ccn(C)c1.F[B-](F)(F)F + CN1CCCC1=O
viscosity [mPa·s]
Conditions	x2 = 0	x2 = 0.0999	x2 = 0.2001	x2 = 0.3028	x2 = 0.4	x2 = 0.4999	x2 = 0.5998	x2 = 0.7001	x2 = 0.8003	x2 = 0.9001
303.15 K	–	–	–	–	–	17.17	11.43	7.37	4.64	2.9
313.15 K	53	41	31.6	23.77	17.42	12.5	8.61	5.75	3.76	2.409
323.15 K	–	28.2	22.15	17.13	13	9.47	6.73	–	3.13	1.991
333.15 K	25.01	20.3	16.25	12.83	9.93	7.46	5.37	3.79	2.66	1.722

CCCC[n+]1ccn(C)c1.F[B-](F)(F)F + CO
viscosity [mPa·s]
Conditions	x2 = 0	x2 = 0.1003	x2 = 0.2047	x2 = 0.2997	x2 = 0.3996	x2 = 0.504	x2 = 0.6004	x2 = 0.6992	x2 = 0.7997	x2 = 0.9001
303.15 K	84.2	54.2	34.6	23.54	15.02	9.42	–	3.67	2.118	1.141
313.15 K	–	–	–	16.93	11.32	7.4	4.86	3.03	–	–
323.15 K	35.5	–	17.81	12.9	8.94	6.02	–	2.537	1.527	0.895
333.15 K	25.01	18.68	13.6	10.13	–	5.03	3.42	2.195	1.337	0.765
